Some results are limits rather than exact numbers.

For orientation: melting point means the temperature of the solid-liquid transition.

On to `CC(C)(O)Cn1c(CO)nc2c(N)nc3cc(OCc4ccccc4)ccc3c21`, for which the melting point was in the range of 284 to 286 °C.

Turning to `Cc1nc(C)c(Cl)c(NCc2cc(OCC(F)(F)F)c(OCc3ccccc3)c(Br)n2)n1`, the melting point fell in the range of 97 to 98 °C.

In the case of `COc1ccc(C(=O)N2c3ccccc3C(n3c4ccccc4c4ccccc43)CC2COCc2ccccc2)cc1OC` (stereo unspecified), the melting point lay in the range of 203 to 204 °C.

`CN(Cc1cccs1)C(=O)C1(c2ccc(F)cc2)CCCC1` registered a melting point of 72 to 75 °C.

Regarding `CCCCOC(=O)C(CC(=O)O)NCCCN(C)C` (stereo unspecified), the melting point is 154 to 158 °C.

In turn, `CC1(C2CCC3C4C=CC5=CC(=O)C6OC6C5(C)C4CCC32C)OCCO1` (stereo unspecified) displayed a melting point of 137 to 138 °C.

`Cc1nc(-c2ccc(C(F)(F)F)cc2)sc1CSc1cc(C(C)C)c(OCC(=O)O)c(C(C)C)c1` displayed a melting point of 161 to 163 °C.

Compound `COc1ccc(SC(C(=O)NO)c2ccccc2)cc1` (stereo unspecified) had a melting point of 155 °C.

The compound `O=C(NCC1CCN(C[C@H]2COc3ccc(Cl)cc3O2)CC1)c1cccc2cccnc12` came in with a melting point of 51 to 54 °C.

As to `Cc1nc(-n2ccc3cc(O)ccc3c2=O)sc1C(=O)NCc1ccccc1`, the melting point fell in the range of 225 to 228 °C.

In turn, `CCC(CC)n1nc(-c2ccc(O)cc2O)c2cccc(C(F)(F)F)c21` had a melting point of 121 to 122 °C.

As for `O=P(c1ccccc1)(c1ccccc1)c1ccc(P(=O)(c2ccccc2)c2ccccc2)nn1`, the melting point was in the range of 248 to 252 °C.

For `COC(=O)c1ccc(C(F)F)nc1C`, the melting point is 135 to 136 °C.

`CC1=CC(OC(=O)C=Cc2ccc(N)cc2)C(O)C(C)(C)CC1=O` (stereo unspecified) had a melting point of 72 to 74 °C.

With `COc1ccc(C(CC(C)(C)C(=O)O)c2ccc(Cl)cc2)cc1` (stereo unspecified), the melting point lay within 139 to 142 °C.

Compound `CCCC1CCc2c(c(F)c(F)c3oc(C)cc23)O1` (stereo unspecified) returned a melting point of 75 °C.

`CC(=O)OC1CSC(Oc2ccc(-c3ccnc(Cl)c3)nc2)C(OC(C)=O)C1OC(C)=O` (stereo unspecified) displayed a melting point of 226 °C.

The compound `Cn1c(Cl)c([N+](=O)[O-])c(=O)n(C)c1=O` showed a melting point of 91 to 92 °C.

In the case of `O=C1C2CCCC2=Nc2ccccc2N1Cc1cccc2ccccc12` (stereo unspecified), the melting point was 145 to 147 °C.

`Cc1cc(F)ccc1-c1ccc(S(=O)(=O)N2c3ccccc3CC2C(=O)NCc2ccccc2[N+](=O)[O-])cc1` (stereo unspecified) gave a melting point of 64 to 66 °C.

`O=c1oc(CCc2ccccc2)cc(O)c1SCc1ccccc1` returned a melting point of 164 to 166 °C.

In turn, `CCN(CC)C(=O)N1SN(C(C)C)C(=O)c2ccccc21` came in with a melting point of 103 to 104 °C.

For `CCOC(=O)c1sc(SC)c2c1CCc1nc(-c3ccccc3)[nH]c1-2`, the melting point fell in the range of 218 to 219 °C.

Consider `CN1CCC(c2nn(CCCO)c3ccccc23)CC1`, for which the melting point fell in the range of 96 to 98 °C.

The compound `C/C(=C(\C#N)C(N)=S)N1CCCCCCC1` registered a melting point of 149 to 150 °C.

As for `CC(C)CC(NC(=O)CNc1ccc(Cl)cc1)C(=O)NCC#N` (stereo unspecified), the melting point was in the range of 131 to 134 °C.

Turning to `CCCCC(=O)Nc1ccc(C(=O)CCC(=O)O)cc1`, the melting point lay within 153 to 155 °C.

Consider `CCCCOC(=O)N1CCN(C(=O)c2cc(S(=O)(=O)N(C)C)ccc2N)CC1`, for which the melting point lay in the range of 175 to 177 °C.

Consider `CCOC(=O)c1cn(C2CC2)c2c(C)c(N3CCN(C(=O)OCC)CC3)c(F)cc2c1=O`, for which the melting point fell in the range of 200 to 202 °C.

On to `CCCCCC1=NNC(=O)CC1`, for which the melting point is 40 °C.

The compound `O=c1c2ccc([N+](=O)[O-])cc2nc2n1CCC2=Cc1ccccc1` had a melting point of 196 to 197 °C.

Regarding `COc1ccc(-n2nnnc2CC(=O)C(F)(F)F)cc1C=O`, the melting point was 128 °C.

Regarding `CC(=O)Oc1ccc([C@@H]2O[C@H]2CO)cc1`, the melting point is 59 to 61 °C.

`Cc1c(C)c2c(c(C)c1NC(=O)CC(C)(C)C)OCC2c1ccc(C(C)C)cc1` (stereo unspecified): the melting point lay in the range of 214 to 215 °C.

The compound `COc1ccc(C(C)(C)O)cc1CN[C@H]1CN2CC[C@H]1[C@H](C(=O)O)[C@@H]2C(c1ccccc1)c1ccccc1` registered a melting point of 150 to 153 °C.

On to `CCCC1=NN(c2ccc(C(=O)O)cc2)C(=O)C1=CNc1ccccc1CC`, for which the melting point is 254 °C.

The compound `COc1cccc(-c2ccc(N3CCCN(c4ccc(-c5cccc(OC)c5)cn4)CC3)nc2)c1` displayed a melting point of 146 to 149 °C.

For `CCCCOCC(O)COc1ccc(-c2nc(-c3ccc(OCC(O)COCCCC)cc3O)nc(-c3c(C)cc(C)cc3C)n2)c(O)c1` (stereo unspecified), the melting point lay in the range of 125 to 131 °C.

As for `Nc1ccn(C2OC(CO)C(O)C2O[N+](=O)[O-])c(=O)n1` (stereo unspecified), the melting point was in the range of 151 to 153 °C.

Compound `COc1ccc(COc2ccc(NC(C)=O)cc2C(=O)C=Cc2ccc(OCc3ccccc3)cc2)cc1` gave a melting point of 201 to 202 °C.

The compound `O=c1cc(-c2ccc(Cl)cc2)oc2ccc(OCCCCCCN3CCC(O)CC3)cc12` gave a melting point of 127 to 128 °C.

Compound `Nc1ncnc2c1c(I)cn2C1CC(O)C(CO)O1` (stereo unspecified) had a melting point of 194 °C.

The compound `COc1ccc(OC)c(-c2cc3c(Nc4cccc(Cl)c4)ncnc3[nH]2)c1` had a melting point of 267 to 268 °C.

The compound `CC1SC(=O)NN=C1c1ccc2c(c1)C(=NNC(=O)c1cccs1)C(=O)N2` (stereo unspecified) displayed a melting point of over 300 °C.

In turn, `O=C(Nc1nc(C(F)(F)F)co1)C1c2ccccc2Oc2c(Cl)cccc21` (racemic) yielded a melting point of 212 °C.

As to `OCCNCCOCCOCCNCCO`, the melting point lay within 49 to 55 °C.

`CCOC(=O)Cn1c(=O)[nH]c2ccc(Cl)cc2c1=O` came in with a melting point of 214 to 215 °C.

With `CCOC(=O)c1csc(N2CCSCC2)n1`, the melting point was 99 to 100 °C.

Compound `CCCCCCCCCCCCCCCCCCOc1ccc(C(=O)C(=O)OCC)cc1` yielded a melting point of 46 to 48 °C.

The compound `O=C1NC(=C2CCCC2)Sc2ccccc21` gave a melting point of 190 to 191 °C.

As to `CC(=O)OC1CSC(Oc2cccnc2C(=O)N(C)C)C(OC(C)=O)C1OC(C)=O` (stereo unspecified), the melting point was 85 to 89 °C.

`CC(=O)OCCn1ccc(=O)c(OCc2ccccc2)c1C(OC(C)=O)c1ccccc1F` (stereo unspecified) returned a melting point of 173 to 174 °C.

`O=C(CCCCCCCCCCS(=O)c1ccccc1[N+](=O)[O-])OCc1ccccc1` (stereo unspecified): the melting point fell in the range of 37 to 38 °C.

The compound `CCNC(=O)C1OC(n2cnc3c(NC(=O)Nc4ccc(S(=O)(=O)N5CCCCC5)cc4)ncnc32)C(O)C1O` (stereo unspecified) yielded a melting point of 176 to 178 °C.

`O=C(O)c1cc2cc3c(cc2c2cc(OCc4ccccc4)ccc12)OCO3` gave a melting point of 263 to 265 °C.

The compound `c1ccc2c(c1)CSc1nncn1-2` yielded a melting point of 188 to 190 °C.

In turn, `CNC(=O)[C@H]1S[C@@H](n2cnc3c(NCc4cccc(I)c4)nc(Cl)nc32)[C@H](O)[C@@H]1O` registered a melting point of 140 to 141 °C.

For `CC(O)CN1CCC(c2noc3cc(F)ccc23)CC1` (stereo unspecified), the melting point lay within 45 to 47 °C.

For the compound `FC(F)c1cccc(C#CCCn2nc3ccccc3n2)n1`, the melting point is 102 to 103 °C.

As to `COc1cc(C(=O)c2ccccc2)cc([N+](=O)[O-])c1OC`, the melting point is 78 to 80 °C.

Turning to `COc1ccc(-c2c(C)ncc(C#N)c2Nc2ccc3[nH]ccc3c2C)cc1OC`, the melting point lay in the range of 202 to 203 °C.

As to `COc1ccc(CCNCC(O)COc2cccc3nn(Cc4ccccc4)cc23)cc1OC` (stereo unspecified), the melting point fell in the range of 101 to 102 °C.

`CN=Cc1ccc2c(Br)c(OC)ccc2c1` came in with a melting point of 105 to 107 °C.

For `CC(=O)NC[C@H]1CN(c2ccc(C=C(Br)Br)c(F)c2)C(=O)O1`, the melting point is 177 to 179 °C.

For `COC(=O)[C@H](O)[C@@H](NC(=O)OC(C)(C)C)c1ccc(C#N)cc1`, the melting point stood at 250 °C.

`O=C(NC(=O)c1c(F)cccc1F)Nc1cc(Cl)c(Cl)c(Cl)c1`: the melting point lay in the range of 231 to 232 °C.

`O=C(Nc1cccc(S(=O)(=O)NC2CC2)c1)c1cnn2c(C(F)F)cc(-c3ccc(C(F)(F)F)cc3)nc12`: the melting point turned out to be 252 °C.

Consider `CCC(=O)CNC(=O)c1cc(OC)cc(Oc2cccc(C(F)(F)F)c2)n1`, for which the melting point fell in the range of 100 to 103 °C.

In turn, `Cc1cc(C)c(C(O)P(=O)(c2ccccc2)c2ccccc2)c(C)c1` (stereo unspecified) registered a melting point of 152 to 153 °C.

Take `O=C(O)COc1cc2c(c(Cl)c1Cl)C(=O)c1ccccc1-2`: the melting point fell in the range of 305 to 306 °C.

Take `CCc1cccc2c(/C=C(\C)C(=O)O)cc(OC)c(OC(C)=O)c12`: the melting point lay within 148 to 150 °C.

Regarding `CN(CCN(CCC12CC3CC(CC(C3)C1)C2)C(=O)NCCCc1ccncc1)S(C)(=O)=O`, the melting point was in the range of 165 to 167 °C.

Compound `CCOC(=O)C(Cc1ccc(F)cc1)C(=O)c1ccc(C(F)(F)F)cc1` (stereo unspecified) gave a melting point of 52 to 53 °C.

In turn, `CS(=O)(=O)Nc1cc(C(c2cc(F)ccc2F)S(=O)(=O)c2ccc(Cl)cn2)c(Cl)cn1` (stereo unspecified) yielded a melting point of 214 to 216 °C.

Compound `Cc1cccc(-c2oc3c(C(=O)NCCCN4CCCCC4)cccc3c(=O)c2C)c1` gave a melting point of 112 to 114 °C.

Compound `COc1ccc2c(c1)CCc1cnc(N(C)c3cc(OC)c(OC)c(OC)c3)nc1-2` returned a melting point of 199 to 201 °C.

Take `CC(=O)OC1N=C(c2ccccc2)c2cc(Cl)ccc2-n2c1cnc2C` (stereo unspecified): the melting point lay in the range of 200 to 201 °C.

For `CCCc1c(OCc2ccc(C=CC(=O)O)c(OC)c2)ccc(C(C)=O)c1O`, the melting point lay within 214 to 216 °C.

Consider `Cc1n[nH]c(C)c1-c1nn(C(C)c2oc3ccccc3c(=O)c2-c2cccc(F)c2)c2ncnc(N)c12` (stereo unspecified), for which the melting point is 240 to 243 °C.

The compound `CNC1C(O)CC2C3CCc4cc(O)cc(C)c4C3CCC21C` (stereo unspecified) had a melting point of 215 to 231 °C.

In turn, `COc1ccc(N(C(=O)c2c3ccccc3nc3ccccc23)S(=O)(=O)c2ccc(CCC(=O)ON3C(=O)CCC3=O)cc2)c(OC)c1` gave a melting point of 105 °C.

`N#CC=CC(=O)C=NN1CC(=O)NC1=O` registered a melting point of 171 to 173 °C.

In the case of `Cn1cccc1C(=NOCc1cccs1)C(=O)O`, the melting point is 70 to 71 °C.

Compound `CCOC(=O)c1cc2c(C=O)ccc(OCc3ccccc3)c2[nH]1` gave a melting point of 131 to 132 °C.

Regarding `CCOC(=O)c1c(N2CCN(C(=O)c3cccs3)CC2)c2cccnc2n(Cc2ccccc2)c1=O`, the melting point was 168 °C.

Turning to `CC(C)(C)OC(=O)Nc1cc(OCC#N)c(-c2ccc(F)cc2)cc1N`, the melting point was 118 to 119 °C.

The values above are taken from a melting point compilation (Tetko et al.; mined from patent text by program, amines drawn as free bases though some values may be those of a salt).
